Measured values as given in the supplement of paper PMC13380429.

Tests used:
Conditions in all cases: 72 h
[1] = test system: HepG2; assay: relative viability EC50 (midpoint between 100% and the lowest measured viability); higher = less toxic
[2] = test system: Calu-3; assay: as above
[3] = test system: U2OS; assay: as above
[4] = test system: Vero E6; assay: as above
[5] = test system: Caco-2; assay: as above
[6] = test system: HepG2; assay: drug sensitivity score (DSS) for viability; higher = more toxic; extreme values may be limits of the assay
[7] = test system: Calu-3; assay: as above
[8] = test system: U2OS; assay: as above
[9] = test system: Vero E6; assay: as above
[10] = test system: Caco-2; assay: as above
[11] = test system: HepG2; assay: cell viability relative to DMSO; higher = less toxic
[12] = test system: Calu-3; assay: as above
[13] = test system: U2OS; assay: as above
[14] = test system: Vero E6; assay: as above
[15] = test system: Caco-2; assay: as above

SMILES: O=C(O)C1=CCCN(CCOC(c2ccc(C(F)(F)F)cc2)c2ccc(C(F)(F)F)cc2)C1 [CI-966]
- relative viability EC50 [1]: > 10 µM
- relative viability EC50 [2]: > 10 µM
- relative viability EC50 [3]: > 10 µM
- relative viability EC50 [4]: > 10 µM
- relative viability EC50 [5]: > 10 µM
- drug sensitivity score [6]: 0
- drug sensitivity score [7]: 0
- drug sensitivity score [8]: 0
- drug sensitivity score [9]: 0
- drug sensitivity score [10]: 0
- cell viability ([11]; 1 nM): 98.7%
- cell viability ([11]; 10 nM): 99.3%
- cell viability ([11]; 100 nM): 104%
- cell viability ([11]; 1000 nM): 95.5%
- cell viability ([11]; 10000 nM): 109%
- cell viability ([12]; 1 nM): 97.6%
- cell viability ([12]; 10 nM): 101%
- cell viability ([12]; 100 nM): 102%
- cell viability ([12]; 1000 nM): 98.5%
- cell viability ([12]; 10000 nM): 96.4%
- cell viability ([13]; 1 nM): 101%
- cell viability ([13]; 10 nM): 107%
- cell viability ([13]; 100 nM): 106%
- cell viability ([13]; 1000 nM): 98.7%
- cell viability ([13]; 10000 nM): 98%
- cell viability ([14]; 1 nM): 98.2%
- cell viability ([14]; 10 nM): 99.4%
- cell viability ([14]; 100 nM): 101%
- cell viability ([14]; 1000 nM): 97.8%
- cell viability ([14]; 10000 nM): 99.4%
- cell viability ([15]; 1 nM): 101%
- cell viability ([15]; 10 nM): 101%
- cell viability ([15]; 100 nM): 105%
- cell viability ([15]; 1000 nM): 100%
- cell viability ([15]; 10000 nM): 90.4%

SMILES: Cc1cc(NC(=O)C(c2ccccc2)N2CCCc3ccccc32)no1 (stereo not given) [CIM-0216]
- relative viability EC50 [1]: > 10 µM
- relative viability EC50 [2]: > 10 µM
- relative viability EC50 [3]: > 10 µM
- relative viability EC50 [4]: > 10 µM
- relative viability EC50 [5]: > 10 µM
- drug sensitivity score [6]: 0
- drug sensitivity score [7]: 0
- drug sensitivity score [8]: 0
- drug sensitivity score [9]: 0
- drug sensitivity score [10]: 0
- cell viability ([11]; 1 nM): 104%
- cell viability ([11]; 10 nM): 103%
- cell viability ([11]; 100 nM): 103%
- cell viability ([11]; 1000 nM): 90.1%
- cell viability ([11]; 10000 nM): 98.3%
- cell viability ([12]; 1 nM): 103%
- cell viability ([12]; 10 nM): 98.5%
- cell viability ([12]; 100 nM): 87.7%
- cell viability ([12]; 1000 nM): 113%
- cell viability ([12]; 10000 nM): 111%
- cell viability ([13]; 1 nM): 98.7%
- cell viability ([13]; 10 nM): 104%
- cell viability ([13]; 100 nM): 97.4%
- cell viability ([13]; 1000 nM): 101%
- cell viability ([13]; 10000 nM): 97%
- cell viability ([14]; 1 nM): 104%
- cell viability ([14]; 10 nM): 99.2%
- cell viability ([14]; 100 nM): 96.3%
- cell viability ([14]; 1000 nM): 101%
- cell viability ([14]; 10000 nM): 101%
- cell viability ([15]; 1 nM): 97.1%
- cell viability ([15]; 10 nM): 101%
- cell viability ([15]; 100 nM): 98.2%
- cell viability ([15]; 1000 nM): 97.4%
- cell viability ([15]; 10000 nM): 114%

SMILES: COc1cccc(/C=N/N=C/c2cccc(OC)c2)c1 [DMeOB]
- relative viability EC50 [1]: > 10 µM
- relative viability EC50 [2]: > 10 µM
- relative viability EC50 [3]: > 10 µM
- relative viability EC50 [4]: > 10 µM
- relative viability EC50 [5]: > 10 µM
- drug sensitivity score [6]: 0
- drug sensitivity score [7]: 0
- drug sensitivity score [8]: 0
- drug sensitivity score [9]: 0
- drug sensitivity score [10]: 0
- cell viability ([11]; 1 nM): 110%
- cell viability ([11]; 10 nM): 93.3%
- cell viability ([11]; 100 nM): 103%
- cell viability ([11]; 1000 nM): 98.4%
- cell viability ([11]; 10000 nM): 94.9%
- cell viability ([12]; 1 nM): 101%
- cell viability ([12]; 10 nM): 114%
- cell viability ([12]; 100 nM): 99.6%
- cell viability ([12]; 1000 nM): 111%
- cell viability ([12]; 10000 nM): 105%
- cell viability ([13]; 1 nM): 101%
- cell viability ([13]; 10 nM): 102%
- cell viability ([13]; 100 nM): 97.5%
- cell viability ([13]; 1000 nM): 107%
- cell viability ([13]; 10000 nM): 99.3%
- cell viability ([14]; 1 nM): 109%
- cell viability ([14]; 10 nM): 99.8%
- cell viability ([14]; 100 nM): 103%
- cell viability ([14]; 1000 nM): 99.2%
- cell viability ([14]; 10000 nM): 103%
- cell viability ([15]; 1 nM): 96.4%
- cell viability ([15]; 10 nM): 106%
- cell viability ([15]; 100 nM): 96.9%
- cell viability ([15]; 1000 nM): 104%
- cell viability ([15]; 10000 nM): 103%

SMILES: CC(C)(C)c1cc(C(=O)/C(C#N)=N/Nc2cccc(Cl)c2)no1 [ESI-09]
- relative viability EC50 [1]: 3.4 µM
- relative viability EC50 [2]: > 10 µM
- relative viability EC50 [3]: > 10 µM
- relative viability EC50 [4]: > 10 µM
- relative viability EC50 [5]: 2.75 µM
- drug sensitivity score [6]: 3.5
- drug sensitivity score [7]: 0
- drug sensitivity score [8]: 0.2
- drug sensitivity score [9]: 0
- drug sensitivity score [10]: 3.9
- cell viability ([11]; 1 nM): 109%
- cell viability ([11]; 10 nM): 102%
- cell viability ([11]; 100 nM): 102%
- cell viability ([11]; 1000 nM): 103%
- cell viability ([11]; 10000 nM): 31.2%
- cell viability ([12]; 1 nM): 103%
- cell viability ([12]; 10 nM): 93.7%
- cell viability ([12]; 100 nM): 91.9%
- cell viability ([12]; 1000 nM): 102%
- cell viability ([12]; 10000 nM): 95.9%
- cell viability ([13]; 1 nM): 98.1%
- cell viability ([13]; 10 nM): 96.1%
- cell viability ([13]; 100 nM): 98.4%
- cell viability ([13]; 1000 nM): 96.1%
- cell viability ([13]; 10000 nM): 87.6%
- cell viability ([14]; 1 nM): 90%
- cell viability ([14]; 10 nM): 94.2%
- cell viability ([14]; 100 nM): 91%
- cell viability ([14]; 1000 nM): 99.3%
- cell viability ([14]; 10000 nM): 83.3%
- cell viability ([15]; 1 nM): 99.8%
- cell viability ([15]; 10 nM): 96.1%
- cell viability ([15]; 100 nM): 104%
- cell viability ([15]; 1000 nM): 96.6%
- cell viability ([15]; 10000 nM): 37%

SMILES: CN[C@@H](C)C(=O)N[C@H](C(=O)N1CCC[C@H]1C(=O)Nc1snnc1-c1ccccc1)C1CCCCC1 [GDC-0152]
- relative viability EC50 [1]: > 10 µM
- relative viability EC50 [2]: > 10 µM
- relative viability EC50 [3]: > 10 µM
- relative viability EC50 [4]: > 10 µM
- relative viability EC50 [5]: > 10 µM
- drug sensitivity score [6]: 0
- drug sensitivity score [7]: 1.1
- drug sensitivity score [8]: 0
- drug sensitivity score [9]: 0
- drug sensitivity score [10]: 0
- cell viability ([11]; 1 nM): 105%
- cell viability ([11]; 10 nM): 105%
- cell viability ([11]; 100 nM): 99.6%
- cell viability ([11]; 1000 nM): 97.4%
- cell viability ([11]; 10000 nM): 96%
- cell viability ([12]; 1 nM): 104%
- cell viability ([12]; 10 nM): 106%
- cell viability ([12]; 100 nM): 97.4%
- cell viability ([12]; 1000 nM): 87.9%
- cell viability ([12]; 10000 nM): 84.9%
- cell viability ([13]; 1 nM): 98.1%
- cell viability ([13]; 10 nM): 109%
- cell viability ([13]; 100 nM): 95.7%
- cell viability ([13]; 1000 nM): 100%
- cell viability ([13]; 10000 nM): 94.3%
- cell viability ([14]; 1 nM): 97%
- cell viability ([14]; 10 nM): 98.9%
- cell viability ([14]; 100 nM): 102%
- cell viability ([14]; 1000 nM): 103%
- cell viability ([14]; 10000 nM): 106%
- cell viability ([15]; 1 nM): 98.4%
- cell viability ([15]; 10 nM): 104%
- cell viability ([15]; 100 nM): 98.9%
- cell viability ([15]; 1000 nM): 102%
- cell viability ([15]; 10000 nM): 92.2%

SMILES: Cc1cc(OCc2nc(-c3ccccc3Cl)cs2)ccc1OCC(=O)O [GPR120-modulator-1]
- relative viability EC50 [1]: > 10 µM
- relative viability EC50 [2]: > 10 µM
- relative viability EC50 [3]: > 10 µM
- relative viability EC50 [4]: > 10 µM
- relative viability EC50 [5]: > 10 µM
- drug sensitivity score [6]: 0
- drug sensitivity score [7]: 0
- drug sensitivity score [8]: 0
- drug sensitivity score [9]: 0
- drug sensitivity score [10]: 0
- cell viability ([11]; 1 nM): 104%
- cell viability ([11]; 10 nM): 93.4%
- cell viability ([11]; 100 nM): 101%
- cell viability ([11]; 1000 nM): 101%
- cell viability ([11]; 10000 nM): 92.8%
- cell viability ([12]; 1 nM): 96.4%
- cell viability ([12]; 10 nM): 99.8%
- cell viability ([12]; 100 nM): 99.6%
- cell viability ([12]; 1000 nM): 110%
- cell viability ([12]; 10000 nM): 86.9%
- cell viability ([13]; 1 nM): 92.3%
- cell viability ([13]; 10 nM): 96.8%
- cell viability ([13]; 100 nM): 92.2%
- cell viability ([13]; 1000 nM): 102%
- cell viability ([13]; 10000 nM): 94.3%
- cell viability ([14]; 1 nM): 101%
- cell viability ([14]; 10 nM): 102%
- cell viability ([14]; 100 nM): 102%
- cell viability ([14]; 1000 nM): 97.9%
- cell viability ([14]; 10000 nM): 97.1%
- cell viability ([15]; 1 nM): 102%
- cell viability ([15]; 10 nM): 97.5%
- cell viability ([15]; 100 nM): 103%
- cell viability ([15]; 1000 nM): 98.5%
- cell viability ([15]; 10000 nM): 92.8%

SMILES: CC(C)c1onc(-c2c(Cl)cccc2Cl)c1COc1ccc(/C=C/c2cccc(C(=O)O)c2)c(Cl)c1 [GW-4064]
- relative viability EC50 [1]: > 10 µM
- relative viability EC50 [2]: > 10 µM
- relative viability EC50 [3]: > 10 µM
- relative viability EC50 [4]: > 10 µM
- relative viability EC50 [5]: > 10 µM
- drug sensitivity score [6]: 0
- drug sensitivity score [7]: 0
- drug sensitivity score [8]: 0
- drug sensitivity score [9]: 0
- drug sensitivity score [10]: 1.4
- cell viability ([11]; 1 nM): 105%
- cell viability ([11]; 10 nM): 103%
- cell viability ([11]; 100 nM): 92.4%
- cell viability ([11]; 1000 nM): 99.2%
- cell viability ([11]; 10000 nM): 93.8%
- cell viability ([12]; 1 nM): 93.9%
- cell viability ([12]; 10 nM): 107%
- cell viability ([12]; 100 nM): 103%
- cell viability ([12]; 1000 nM): 102%
- cell viability ([12]; 10000 nM): 96.5%
- cell viability ([13]; 1 nM): 98.2%
- cell viability ([13]; 10 nM): 106%
- cell viability ([13]; 100 nM): 96.4%
- cell viability ([13]; 1000 nM): 93.3%
- cell viability ([13]; 10000 nM): 97.7%
- cell viability ([14]; 1 nM): 95.5%
- cell viability ([14]; 10 nM): 99.8%
- cell viability ([14]; 100 nM): 94%
- cell viability ([14]; 1000 nM): 93.8%
- cell viability ([14]; 10000 nM): 95.7%
- cell viability ([15]; 1 nM): 94%
- cell viability ([15]; 10 nM): 99.4%
- cell viability ([15]; 100 nM): 102%
- cell viability ([15]; 1000 nM): 91%
- cell viability ([15]; 10000 nM): 81.4%
